From ChEMBL document CHEMBL3885881, “DrugMatrix”

Organism: Rattus norvegicus
Experiment: DrugMatrix - Regimen: Daily Repeat
Assay type: toxicity, organism-based, Sprague-Dawley
Parameters: regimen Daily Repeat, gender Male, age 6-8 weeks
Conditions: in vivo, iv, vehicle 100 % SALINE; for ABSOLUTE BASOPHIL / ABSOLUTE EOSINOPHIL / ABSOLUTE LYMPHOCYTE / ABSOLUTE MONOCYTE / ABSOLUTE SEGMENTED NEUTROPHIL / BASOPHIL / EOSINOPHIL / ERYTHROCYTE COUNT / HEMATOCRIT / HEMOGLOBIN / LEUKOCYTE COUNT / LYMPHOCYTE / MEAN CORPUSCULAR HEMOGLOBIN / MEAN CORPUSCULAR HEMOGLOBIN CONCENTRATION / MEAN CORPUSCULAR VOLUME / MONOCYTE / NEUTROPHIL / NUCLEATED RED BLOOD CELLS / PLATELET COUNT: tissue Blood; for ALANINE AMINOTRANSFERASE / ALBUMIN / ALKALINE PHOSPHATASE / ASPARTATE AMINOTRANSFERASE / BLOOD UREA NITROGEN / CARBON DIOXIDE / CHLORIDE / CHOLESTEROL / CREATINE PHOSPHOKINASE / CREATININE / GLUCOSE / LACTATE DEHYDROGENASE / LIPASE / PHOSPHORUS / POTASSIUM / SODIUM / TOTAL BILIRUBIN / TOTAL PROTEIN / URIC ACID: tissue Plasma
[1] = 0 mg/kg, 72 h, dose level Control, time 3 day
[2] = 0 mg/kg, 120 h, dose level Control, time 5 day
[3] = […], 72 h, dose 0.15 mg/Kg, dose level Low, time 3 day
[4] = […], 72 h, dose 1.5 mg/Kg, dose level High, time 3 day

CCC1=C[C@@H]2CN(C1)Cc1c([nH]c3ccccc13)[C@@](C(=O)OC)(c1cc3c(cc1OC)N(C)[C@H]1[C@@](O)(C(=O)OC)[C@H](OC(C)=O)[C@]4(CC)C=CCN5CC[C@]31[C@@H]54)C2 [VINORELBINE]
ABSOLUTE BASOPHIL [1]: 0 CELLS/uL
ABSOLUTE EOSINOPHIL [1]: 15.33 CELLS/uL
ABSOLUTE LYMPHOCYTE [1]: 9513.5 CELLS/uL
ABSOLUTE MONOCYTE [1]: 94.67 CELLS/uL
ABSOLUTE SEGMENTED NEUTROPHIL [1]: 709.83 CELLS/uL
BASOPHIL [1]: 0%
EOSINOPHIL [1]: 0.17%
ERYTHROCYTE COUNT [1]: 5.63 x10E6/uL
HEMATOCRIT [1]: 34.63%
HEMOGLOBIN [1]: 13.6 G/DL
LEUKOCYTE COUNT [1]: 10.33 x10E3/uL
LYMPHOCYTE [1]: 92%
MEAN CORPUSCULAR HEMOGLOBIN [1]: 24.17 pg
MEAN CORPUSCULAR HEMOGLOBIN CONCENTRATION [1]: 39.28 G/DL
MEAN CORPUSCULAR VOLUME [1]: 61.57 fL
MONOCYTE [1]: 0.83%
NEUTROPHIL [1]: 7%
NUCLEATED RED BLOOD CELLS [1]: 0 /100WBC
PLATELET COUNT [1]: 903.17 x10E3/uL
ALANINE AMINOTRANSFERASE [1]: 49.33 u/L
ALBUMIN [1]: 4.27 G/DL
ALKALINE PHOSPHATASE [1]: 400.83 u/L
ASPARTATE AMINOTRANSFERASE [1]: 77.5 u/L
BLOOD UREA NITROGEN [1]: 16.33 mg/dL
CARBON DIOXIDE [1]: 29.33 mmol/L
CHLORIDE [1]: 99.67 MEQ/L
CHOLESTEROL [1]: 66.67 mg/dL
CREATINE PHOSPHOKINASE [1]: 275.33 u/L
CREATININE [1]: 0.18 mg/dL
GLUCOSE [1]: 163.83 mg/dL
LACTATE DEHYDROGENASE [1]: 125.33 u/L
LIPASE [1]: 10 u/L
PHOSPHORUS [1]: 12.12 mg/dL
POTASSIUM [1]: 6.68 MEQ/L
SODIUM [1]: 144.02 MEQ/L
TOTAL BILIRUBIN [1]: 0.18 mg/dL
TOTAL PROTEIN [1]: 5.87 G/DL
URIC ACID [1]: 1.63 mg/dL
ABSOLUTE BASOPHIL [2]: 0 CELLS/uL
ABSOLUTE EOSINOPHIL [2]: 48.83 CELLS/uL
ABSOLUTE LYMPHOCYTE [2]: 14562 CELLS/uL
ABSOLUTE MONOCYTE [2]: 138.67 CELLS/uL
ABSOLUTE SEGMENTED NEUTROPHIL [2]: 1733.83 CELLS/uL
BASOPHIL [2]: 0%
EOSINOPHIL [2]: 0.33%
ERYTHROCYTE COUNT [2]: 5.89 x10E6/uL
HEMATOCRIT [2]: 36.7%
HEMOGLOBIN [2]: 14.42 G/DL
LEUKOCYTE COUNT [2]: 16.48 x10E3/uL
LYMPHOCYTE [2]: 88.83%
MEAN CORPUSCULAR HEMOGLOBIN [2]: 24.52 pg
MEAN CORPUSCULAR HEMOGLOBIN CONCENTRATION [2]: 39.3 G/DL
MEAN CORPUSCULAR VOLUME [2]: 62.37 fL
MONOCYTE [2]: 0.67%
NEUTROPHIL [2]: 10.17%
NUCLEATED RED BLOOD CELLS [2]: 0 /100WBC
PLATELET COUNT [2]: 1076.5 x10E3/uL
ALANINE AMINOTRANSFERASE [2]: 44.67 u/L
ALBUMIN [2]: 4.23 G/DL
ALKALINE PHOSPHATASE [2]: 357.33 u/L
ASPARTATE AMINOTRANSFERASE [2]: 84.83 u/L
BLOOD UREA NITROGEN [2]: 15.5 mg/dL
CARBON DIOXIDE [2]: 27 mmol/L
CHLORIDE [2]: 99.5 MEQ/L
CHOLESTEROL [2]: 63.67 mg/dL
CREATINE PHOSPHOKINASE [2]: 331.33 u/L
CREATININE [2]: 0.18 mg/dL
GLUCOSE [2]: 167.33 mg/dL
LACTATE DEHYDROGENASE [2]: 320.17 u/L
LIPASE [2]: 9.17 u/L
PHOSPHORUS [2]: 12.05 mg/dL
POTASSIUM [2]: 6.54 MEQ/L
SODIUM [2]: 143.02 MEQ/L
TOTAL BILIRUBIN [2]: 0.2 mg/dL
TOTAL PROTEIN [2]: 6.23 G/DL
URIC ACID [2]: 2.07 mg/dL
ABSOLUTE BASOPHIL [3]: 0 CELLS/uL
ABSOLUTE EOSINOPHIL [3]: 49.67 CELLS/uL
ABSOLUTE LYMPHOCYTE [3]: 13595.67 CELLS/uL
ABSOLUTE MONOCYTE [3]: 462 CELLS/uL
ABSOLUTE SEGMENTED NEUTROPHIL [3]: 1292.67 CELLS/uL
BASOPHIL [3]: 0%
EOSINOPHIL [3]: 0.33%
ERYTHROCYTE COUNT [3]: 5.91 x10E6/uL
HEMATOCRIT [3]: 37.77%
HEMOGLOBIN [3]: 14.97 G/DL
LEUKOCYTE COUNT [3]: 15.4 x10E3/uL
LYMPHOCYTE [3]: 87.67%
MEAN CORPUSCULAR HEMOGLOBIN [3]: 25.3 pg
MEAN CORPUSCULAR HEMOGLOBIN CONCENTRATION [3]: 39.63 G/DL
MEAN CORPUSCULAR VOLUME [3]: 63.93 fL
MONOCYTE [3]: 3%
NEUTROPHIL [3]: 9%
NUCLEATED RED BLOOD CELLS [3]: 0 /100WBC
PLATELET COUNT [3]: 1301 x10E3/uL
ABSOLUTE BASOPHIL [4]: 0 CELLS/uL
ABSOLUTE EOSINOPHIL [4]: 0 CELLS/uL
ABSOLUTE LYMPHOCYTE [4]: 5207.33 CELLS/uL
ABSOLUTE MONOCYTE [4]: 23 CELLS/uL
ABSOLUTE SEGMENTED NEUTROPHIL [4]: 236.33 CELLS/uL
BASOPHIL [4]: 0%
EOSINOPHIL [4]: 0%
ERYTHROCYTE COUNT [4]: 5.25 x10E6/uL
HEMATOCRIT [4]: 33.27%
HEMOGLOBIN [4]: 13.3 G/DL
LEUKOCYTE COUNT [4]: 5.47 x10E3/uL
LYMPHOCYTE [4]: 95.33%
MEAN CORPUSCULAR HEMOGLOBIN [4]: 25.4 pg
MEAN CORPUSCULAR HEMOGLOBIN CONCENTRATION [4]: 40 G/DL
MEAN CORPUSCULAR VOLUME [4]: 63.43 fL
MONOCYTE [4]: 0.33%
NEUTROPHIL [4]: 4.33%
NUCLEATED RED BLOOD CELLS [4]: 0.33 /100WBC
PLATELET COUNT [4]: 808.33 x10E3/uL
